US11939402B2, “Antifungal peptides, compounds including the same, and methods of use thereof” (priority 2022, dated 2024)
In brackets after ≈: the same amount, converted by molar mass. Where a SMILES comes first, the peptide text is derived from it. The star is where a group is joined. Palmitoyl = CCCCCCCCCCCCCCCC(=O)*; Myristoyl = CCCCCCCCCCCCCC(=O)*; Decanoyl = CCCCCCCCCC(=O)*; Hexanoyl = CCCCCC(=O)*

Columns and labels:
[1] = system: C. neoformans wild type strain H99; experiment: microbe, parasite or virus in culture; format: cell-based, Cryptococcus neoformans; details: for MIC ug/mL H99: wild-type H99, read at 24 and 48 hours, 37° C.; for MIC ug/mL H99 / MIC: alone; for MIC: against C. neoformans H99 wild type
Description: The assays followed standard CLSI protocol for broth microdilution assays using yeasts.(32) Microbes were passaged in YPD media at 37° C. with mixing for 2 days before harvesting with an inoculation loop to prepare monocultures on Sabouraud Dextrose Agar (SDA) plates. Monocultures on SDA plates were incubated for 2 days at 37° C. before harvesting cells for microdilution assays. RPMI media (100 μL) was charged to each of the 96 wells in a 96 well plate, with an additional 100 μL in the first column. […] The 100 μL was serially diluted by a factor of 2 from the first column to the 11th column. Microbe inoculant was then prepared. An inoculation loop was used to transfer 1-3 colonies of cells to 1 mL phosphate buffer solution (PBS). The PBS and microbe solution was made uniform by vortex mixing. Cell concentration was computed by comparing the absorbance at 530 nm to 1× McFarland standard solution and multiplying the resulting ratio by 10^7 cell/mL conversion factor. Plate inoculant was prepared by diluting the PBS microbe solution to 5000 cell/mL, in RPMI media. A 100 μL aliquot of cells was transferred to each of the wells on the plate other than column 11 for the no growth control. The operating volume was 200 μL, with 500 CFU per well for a final concentration of 2.5*10^3 cells/mL.

[2] = system: C. neoformans cdc50Δ mutant strain; format: cell-based, Cryptococcus neoformans; details: alone
Description: The assays followed standard CLSI protocol for broth microdilution assays using yeasts.(32) Microbes were passaged in YPD media at 37° C. with mixing for 2 days before harvesting with an inoculation loop to prepare monocultures on Sabouraud Dextrose Agar (SDA) plates. Monocultures on SDA plates were incubated for 2 days at 37° C. before harvesting cells for microdilution assays. RPMI media (100 μL) was charged to each of the 96 wells in a 96 well plate, with an additional 100 μL in the first column. Peptide-DMSO solution (4 μL) at 12.8 mg/mL was charged to each of the wells in the first column. The 100 μL was serially diluted by a factor of 2 from the first column to the 11th column. Microbe inoculant was then prepared. An inoculation loop was used to transfer 1-3 colonies of cells to 1 mL phosphate buffer solution (PBS). The PBS and microbe solution was made uniform by vortex mixing. Cell concentration was computed by comparing the absorbance at 530 nm to 1× McFarland standard solution and multiplying the resulting ratio by 10^7 cell/mL conversion factor. Plate inoculant was prepared by diluting the PBS microbe solution to 5000 cell/mL, in RPMI media. A 100 μL aliquot of cells was transferred to each of the wells on the plate other than column 11 for the no growth control. The operating volume was 200 μL, with 500 CFU per well for a final concentration of 2.5*10^3 cells/mL.

[3] = system: C. neoformans cdc50Δ mutant strain; format: cell-based, Cryptococcus neoformans; details: for FIC ug/mL ΔCDC50 Peptide: concentration of the peptide in combination with caspofungin; for FIC Index ΔCDC50: peptide with caspofungin, ΔCDC50 (table S1)
Description: The Fractional Inhibitory Concentration Index were calculated as follows: […]

[4] = system: C. neoformans cells; experiment: AF350-Annexin V / propidium iodine flow cytometry assay (exofacial phosphatidylserine); format: cell-based, Cryptococcus neoformans; details: 0.128 mg/mL peptide, 20 minutes at 25° C.; control 0.2±0.1%
Description: Stock microbes were defrosted from the −80° C. freezer and were passed twice for 48 hours each in YPD media. The YPD media was removed by spinning down and the supernatant was decanted. Pelletized cells were resuspended in 1 mL PBS media and washed for 5 minutes with incubation at 25° C. and 250 RPM. Washed cells were spun down again and suspended in 1 mL of PBS solution. cells were diluted 20-fold into 1 mL fungal working solution in an eppendorf. Cell concentration was quantified via comparison to 1× McFarlain's standard on a plate reader using the absorbance value at 530 nm. An aliquot of 1*10^6 cells in 100 μL was created (1*10^7 cell/mL). […] The cells were incubated for 20 minutes at 25° C. and 250 RPM. Baseline and experimental samples were prepared in triplicate. Cells were stained using an operating concentration of 0.001 mg/mL Propidium Iodine (PI) and a 40-fold dilution of AlexaFluor 350 labelled annexin V as per manufactures instructions. After staining the cells, samples were spun down and supernatant decanted. Cells were then fixed in 4% formaldehyde for 5 minutes. Fixed cells were spun down and supernatant decanted and resuspended in 400 μL 1% formaldehyde for flowcytometry. Samples were collected at a slow flow rate on a MACS Quant 10 device (Miltenyi Biotech, Auburn, CA) with 20,000 events collected per injection.
It was sought to determine whether the activities of the peptides were related to the lipid-flipping activity of the P4-ATPase. […] The intensity of the AF350-annexin V signal corresponds to concentration of PS on the exofacial side of the membrane. The propidium iodine signal corresponds to cell viability.
Single cells were first selected and gated based on morphology to ensure homogeneity among the cell population (4A, 4B). Cells with low propidium iodine intensity (PI-A<9 RU) and high AF350-annexin V intensity (Annexin V-A>9 RU) (4C, 4D) were examined. Under these gating parameters there should be, respectively, low non-specific cell death and high exofacial PS.

[5] = system: C. neoformans wild type strain H99; details: for FIC ug/mL H99 Peptide: concentration of the peptide in combination with caspofungin
Description: Microbes were prepared in the same manner as the MIC assay. […] 100 μL of RPMI media was added to the first 8 wells in the first row. […] The 100 μL of media with drug was serially diluted from the first row to the final row. […] Column 11 was the no growth control, and 12 was the no drug control. The plate was inoculated with microbes in the same manner as the MIC assay. Again, 200 uL was the operating volume, 500 CFU per well, 2.5*10^3 cell/mL. Plates were incubated for 48 hours at 37° C. and read thereafter. The Fractional Inhibitory Concentration Index were calculated as follows:
Where the MICA and MICB are the MIC values of drugs A and B alone and FICA and FICB are the Fractional Inhibitory concentrations of drugs A and B in the presence of each other, respectively.

| Compound | MIC ug/mL H99 [1] [µg/mL] | MIC ug/mL ΔCDC50 [2] [µg/mL] | FIC ug/mL ΔCDC50 Peptide [3] [µg/mL] | FIC Index ΔCDC50 [3] | FIC ug/mL H99 Peptide ([5]; H99) [µg/mL] | further results |
| --- | --- | --- | --- | --- | --- | --- |
| CCCCCCCCCCCCCC(=O)N[C@@H](CO)C(=O)N[C@@H](CCC(=O)O)C(=O)N[C@@H](CO)C(=O)NCC(=O)N[C@H](C(=O)N[C@@H](C)C(=O)N[C@@H](Cc1c[nH]c2ccccc12)C(=O)NCC(=O)NCC(=O)N[C@H](C(=O)N[C@@H](CCCCN)C(=O)N[C@@H](CCCCN)C(=O)N[C@@H](CC(N)=O)C(=O)N[C@@H](Cc1ccc(O)cc1)C(=O)N[C@@H](C)C(=O)O)[C@@H](C)CC)[C@@H](C)CC [AS15-Ma] (Myristoyl-SESGIAWGGIKKNYA-OH) | >128 | 8 (≈ 4.47 µM) | 0.25 | 0.094 | 0.5 | percentage of cells with low propidium iodine intensity (PI-A<9 RU) and high AF350-annexin V intensity (Annexin V-A>9 RU) [4]: 12.1±2.0%; MIC of caspofungin in the presence of peptide ([5]; 0.5 μg/mL peptide, H99, caspofungin alone 16 μg/mL): 8 µg/mL; FIC Index H99 ([5]; peptide with caspofungin, H99 (table S1)): 0.5-1 |
| CCCCCCCCCC(=O)N[C@@H](CO)C(=O)N[C@@H](CCC(=O)O)C(=O)N[C@@H](CO)C(=O)NCC(=O)N[C@H](C(=O)N[C@@H](C)C(=O)N[C@@H](Cc1c[nH]c2ccccc12)C(=O)NCC(=O)NCC(=O)N[C@H](C(=O)N[C@@H](CCCCN)C(=O)N[C@@H](CCCCN)C(=O)N[C@@H](CC(N)=O)C(=O)N[C@@H](Cc1ccc(O)cc1)C(=O)N[C@@H](C)C(=O)O)[C@@H](C)CC)[C@@H](C)CC [AS15-Da] (Decanoyl-SESGIAWGGIKKNYA-OH) | >128 | >128 |  |  |  |  |
| H-YVDGFPNLREDEHFQ-OH [QY15] | >128 | >128 | 0.5 | 0.5-1 | 0.5 |  |
| CCCCCCCCCCCCCC(=O)N[C@@H](Cc1c[nH]c2ccccc12)C(=O)NCC(=O)NCC(=O)N[C@H](C(=O)N[C@@H](CCCCN)C(=O)N[C@@H](C)C(=O)N[C@@H](CC(N)=O)C(=O)N[C@@H](Cc1ccc(O)cc1)C(=O)N[C@@H](C)C(=O)O)[C@@H](C)CC [Peptide K6A-Ma] (Myristoyl-WGGIKANYA-OH) |  |  |  |  |  | MIC [1]: >128 µg/mL |
| CCCCCCCCCCCCCCCC(=O)N[C@@H](CO)C(=O)N[C@@H](CCC(=O)O)C(=O)N[C@@H](CO)C(=O)NCC(=O)N[C@H](C(=O)N[C@@H](C)C(=O)N[C@@H](Cc1c[nH]c2ccccc12)C(=O)NCC(=O)NCC(=O)N[C@H](C(=O)N[C@@H](CCCCN)C(=O)N[C@@H](CCCCN)C(=O)N[C@@H](CC(N)=O)C(=O)N[C@@H](Cc1ccc(O)cc1)C(=O)N[C@@H](C)C(=O)O)[C@@H](C)CC)[C@@H](C)CC [AS15-Pa] (Palmitoyl-SESGIAWGGIKKNYA-OH) | >128 | 128 (≈ 70.4 µM) | 2 | 0.53 | 0.5 |  |
| CCCCCC(=O)N[C@@H](CO)C(=O)N[C@@H](CCC(=O)O)C(=O)N[C@@H](CO)C(=O)NCC(=O)N[C@H](C(=O)N[C@@H](C)C(=O)N[C@@H](Cc1c[nH]c2ccccc12)C(=O)NCC(=O)NCC(=O)N[C@H](C(=O)N[C@@H](CCCCN)C(=O)N[C@@H](CCCCN)C(=O)N[C@@H](CC(N)=O)C(=O)N[C@@H](Cc1ccc(O)cc1)C(=O)N[C@@H](C)C(=O)O)[C@@H](C)CC)[C@@H](C)CC [AS15-Ha] (Hexanoyl-SESGIAWGGIKKNYA-OH) | >128 | >128 |  |  |  |  |
| Ac-SESGIAWGGIKKNYA-OH [AS15-Aa] | >128 | >128 |  |  |  |  |
| CCCCCCCCCCCCCC(=O)N[C@@H](CO)C(=O)NCC(=O)N[C@H](C(=O)N[C@@H](C)C(=O)N[C@@H](Cc1c[nH]c2ccccc12)C(=O)NCC(=O)NCC(=O)N[C@H](C(=O)N[C@@H](CCCCN)C(=O)O)[C@@H](C)CC)[C@@H](C)CC [KS9-Ma] (Myristoyl-SGIAWGGIK-OH) | >128 | >128 |  |  |  |  |
| CCCCCCCCCCCCCCCC(=O)N[C@@H](Cc1c[nH]c2ccccc12)C(=O)NCC(=O)NCC(=O)N[C@H](C(=O)N[C@@H](CCCCN)C(=O)N[C@@H](CCCCN)C(=O)N[C@@H](CC(N)=O)C(=O)N[C@@H](Cc1ccc(O)cc1)C(=O)N[C@@H](C)C(=O)O)[C@@H](C)CC [AW9-Pa] (Palmitoyl-WGGIKKNYA-OH) |  |  | 1 |  | 0.5 |  |
| H-SESGIAWGGIKKNYA-OH [AS15] | >128 | 128 | 0.5 | 0.25 | 0.5 | growth in MIC plate wells compared to the no drug control ([1]; visual inspection of the MIC plates, H99): stronger and more confluent growth |
| CCCCCCCCCCCCCC(=O)N[C@@H](Cc1ccc(O)cc1)C(=O)N[C@H](C(=O)N[C@@H](CC(=O)O)C(=O)NCC(=O)N[C@@H](Cc1ccccc1)C(=O)N1CCC[C@H]1C(=O)N[C@@H](CC(N)=O)C(=O)N[C@@H](CC(C)C)C(=O)N[C@@H](CCCNC(=N)N)C(=O)N[C@@H](CCC(=O)O)C(=O)N[C@@H](CC(=O)O)C(=O)N[C@@H](CCC(=O)O)C(=O)N[C@@H](Cc1c[nH]cn1)C(=O)N[C@@H](Cc1ccccc1)C(=O)N[C@@H](CCC(N)=O)C(=O)O)C(C)C [QY15-Ma] (Myristoyl-YVDGFPNLREDEHFQ-OH) | >128 | 128 (≈ 61.6 µM) | 0.5 | 0.25 | 0.5 |  |
| CCCCCCCCCCCCCC(=O)N[C@@H](Cc1c[nH]c2ccccc12)C(=O)NCC(=O)NCC(=O)N[C@H](C(=O)N[C@@H](C)C(=O)N[C@@H](C)C(=O)N[C@@H](CC(N)=O)C(=O)N[C@@H](Cc1ccc(O)cc1)C(=O)N[C@@H](C)C(=O)O)[C@@H](C)CC [K5A;K6A-Ma] (Myristoyl-WGGIAANYA-OH) |  |  |  |  |  | MIC [1]: >128 µg/mL; percentage of cells with low propidium iodine intensity (PI-A<9 RU) and high AF350-annexin V intensity (Annexin V-A>9 RU) [4]: 1.3±0.9% |
| CCCCCCCCCCCCCC(=O)N[C@@H](Cc1c[nH]c2ccccc12)C(=O)NCC(=O)NCC(=O)N[C@H](C(=O)N[C@@H](C)C(=O)N[C@@H](CCCCN)C(=O)N[C@@H](CC(N)=O)C(=O)N[C@@H](Cc1ccc(O)cc1)C(=O)N[C@@H](C)C(=O)O)[C@@H](C)CC [Peptide K5A-Ma] (Myristoyl-WGGIAKNYA-OH) |  |  |  |  |  | MIC [1]: >128 µg/mL; percentage of cells with low propidium iodine intensity (PI-A<9 RU) and high AF350-annexin V intensity (Annexin V-A>9 RU) [4]: 5.6±0.1% |
